Usually pIC50 stands for the negative decadic logarithm of the IC50, by convention in mol/L. What is called inhibition is how much of the control response was suppressed.

The structures appear in SMILES notation. pIC50: −log10 of the molar value.

The target of experiment [1] is T1, ABHD12 (Homo sapiens, UniProt Q8N2K0).
T1 construct: expressed in transfected cells; host or cells: HEK293T
T1 sequence (Q8N2K0 1-398): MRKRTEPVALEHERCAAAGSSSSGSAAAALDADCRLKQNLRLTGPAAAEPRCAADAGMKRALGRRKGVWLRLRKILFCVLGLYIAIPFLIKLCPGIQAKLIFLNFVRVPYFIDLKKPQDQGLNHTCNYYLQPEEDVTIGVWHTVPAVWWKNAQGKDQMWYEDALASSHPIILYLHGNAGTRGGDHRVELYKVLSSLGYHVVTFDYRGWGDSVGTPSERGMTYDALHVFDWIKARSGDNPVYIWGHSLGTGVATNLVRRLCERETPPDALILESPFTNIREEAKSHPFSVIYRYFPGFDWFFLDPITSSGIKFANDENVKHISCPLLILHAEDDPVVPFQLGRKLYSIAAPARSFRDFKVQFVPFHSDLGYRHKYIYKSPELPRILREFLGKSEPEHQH
Description: Lyso-PS hydrolysis assay (substrate-based), ABHD12-overexpressing HEK293T membrane lysate. The following applies: 17:1 lyso-PS substrate; ABHD12-overexpressed HEK lysate; read-out: IC50 (Substrate-based assay_ABHD12-overexpressed HEK lysate). The class given is biochemical. The protocol: Lyso-PS Hydrolysis Assay:
The lyso-PS lipase activity of ABHD12 was determined as previously described (Blankman, J. L., Long, J. Z., Trauger, S. A., Siuzdak, G. & Cravatt, B. F. ABHD12 controls brain lysophosphatidylserine pathways that are deregulated in a murine model of the neurodegenerative disease PHARC. Proc. Natl. Acad. Sci. U. S. A. 110, 1500-1505, doi:10.1073/pnas.1217121110 (2013)) with some minor modifications. The proteome concentrations were adjusted to 0.25 mg/mL (ABHD12-overexpressing HEK293T membrane) or 0.5 mg/mL (mouse brain membrane) in Dulbecco's phosphate-buffered saline (DPBS) (80 μL/reaction). 20 μL of 500 μM 17:1 lyso-PS in DPBS was added to each reaction (100 μM final concentration) and incubated at 37° C. After 30 min, the reaction was quenched with 400 μL of 2:1 CHCl3/MeOH (v/v) with 1 nmol 15:0 FFA as an internal standard. The mixture was vortexed and centrifuged at 1,400× g to separate the aqueous and organic phase. The organic phase was analyzed by LC-MS (1200 LC/MSD, Agilent Technologies). The separation of the analyte was achieved using a 50 mm×4.6 mm 5 μm Gemini C18 column (Phenomenex) coupled to a guard column (Gemini: C18: 4×3 mm). The LC solvents were as follows: buffer A, […] (95:5, v/v) with 0.1% NH4OH (v/v); and buffer B, iPrOH:MeOH:H2O (60:3 5:5, v/v/v) with 0.1% NH4OH (v/v). The LC method consisted of 0.1 mL/min 20% buffer B for 1.0 min, 0.4 ml/min isocratic mode of 100% buffer B over 7 min and equilibration with 0.5 mL/min 100% buffer A for 3 min. The MS analyses were performed using an electrospray ionization source (ESI) in negative ion mode to measure product formation. MS data were acquired in selected ion monitoring mode at m/z 267.20 for 17:1 FFA and m/z 241.20 for 15:0 FFA.

The target in experiment [2] is T2, ABHD12 (Mus musculus, UniProt Q99LR1).
T2 construct: from tissue; host or cells: brain membrane proteome
T2 sequence (Q99LR1 1-398): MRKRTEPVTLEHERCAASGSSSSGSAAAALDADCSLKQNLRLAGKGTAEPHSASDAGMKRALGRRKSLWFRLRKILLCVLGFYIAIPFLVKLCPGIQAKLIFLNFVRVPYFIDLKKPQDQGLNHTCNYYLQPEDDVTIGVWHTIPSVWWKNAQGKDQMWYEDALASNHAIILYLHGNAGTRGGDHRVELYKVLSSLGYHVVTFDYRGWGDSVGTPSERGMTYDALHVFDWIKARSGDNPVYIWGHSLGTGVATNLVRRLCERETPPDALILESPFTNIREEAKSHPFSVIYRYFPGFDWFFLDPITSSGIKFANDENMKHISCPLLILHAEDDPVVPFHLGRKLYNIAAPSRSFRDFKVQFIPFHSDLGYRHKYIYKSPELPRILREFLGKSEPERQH
Description: Gel-based competitive ABPP, JJH350 probe vs brain membrane proteome. The following applies: for inhibition at 10 µM: 10 μM compound, read-out: % Inhibition @ 10 μM (ABPP gel_JJH350 probe vs brain mem); for pIC50: read-out: IC50 (ABPP gel_JJH350 probe vs brain mem). The class given is biochemical. An outline of the steps: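 Mouse membrane proteome (1 mg/mL) labeled 45 min at 37 °C with alkyne probe JJH350 (2 μM final) or FP-Rh (1 μM final). JJH350 targets were visualized after CuAAC with rhodamine-azide (1 h, room temperature), SDS-PAGE (10%) and in-gel fluorescence scanning, with band intensities quantified.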

On to `FC(F)(F)c1ccc(Oc2ccnc(N3CCC(NC(=S)Nc4cccnc4)CC3)c2)cc1` [Example 51, 1-(Pyridin-3-yl)-3-(1-(4-(4-(trifluoromethyl)phenoxy)pyridin-2-yl)piperidin-4-yl)thiourea], for which the negative-log IC50 (pIC50) in experiment [1] is 6.00 to 7.00. In experiment [2], the inhibition at 10 µM is at least 75% and the pIC50 was 6.00 to 7.00.
Regarding `FC(F)(F)Oc1ccc(Oc2ccnc(N3CCC(NC(=S)Nc4cccnc4)CC3)c2)cc1Cl` [Example 54, 1-(1-(4-(3-Chloro-4-(trifluoromethoxy)phenoxy)pyridin-2-yl)piperidin-4-yl)-3-(pyridin-3-yl)thiourea], in experiment [1], the pIC50 was 6.00 to 7.00. Further, in experiment [2], the inhibition at 10 µM is at least 75%.
Take `FC(F)(F)Oc1cc(Oc2ccnc(N3CCC(NC(=S)Nc4cccnc4)CC3)c2)ccc1Cl` [Example 57, 1-(1-(4-(4-Chloro-3-(trifluoromethoxy)phenoxy)pyridin-2-yl)piperidin-4-yl)-3-(pyridin-3-yl)thiourea]: in experiment [1], the pIC50 is 6.00 to 7.00. Moreover, in experiment [2], the inhibition at 10 µM is at least 75% and the negative-log IC50 (pIC50) is 6.00 to 7.00.
Consider `FC(F)(F)Oc1ccc(Oc2ccnc(N3CCC(NC(=S)Nc4cccnc4)CC3)c2C(F)(F)F)cc1` [Example 59, 1-(Pyridin-3-yl)-3-(1-(4-(4-(trifluoromethoxy)phenoxy)-3-(trifluoromethyl)pyridin-2-yl)piperidin-4-yl)thiourea], for which the negative-log IC50 (pIC50) in experiment [1] is 4.60 to 6.00. In experiment [2], the inhibition at 10 µM is at least 75% and the negative logarithm of the IC50 (pIC50) was 4.60 to 6.00.
Regarding `FC(F)(F)Oc1ccc(Oc2ccnc(N3CCC(NC(=S)Nc4cccnc4)CC3)c2Cl)cc1Cl` [Example 65, 1-(1-(3-Chloro-4-(3-chloro-4-(trifluoromethoxy)phenoxy)pyridin-2-yl)piperidin-4-yl)-3-(pyridin-3-yl)thiourea], the pIC50 in experiment [1] and in experiment [2] was at least 7.00 throughout.
As to `FC(F)(F)Oc1cccc(Oc2ccnc(N3CCC(NC(=S)Nc4cccnc4)CC3)c2Cl)c1` [Example 66, 1-(1-(3-Chloro-4-(3-(trifluoromethoxy)phenoxy)pyridin-2-yl)piperidin-4-yl)-3-(pyridin-3-yl)thiourea], the pIC50 in experiment [1] is 6.00 to 7.00; in experiment [2] it was at least 7.00.
In the case of `FC(F)(F)Oc1ccccc1Oc1ccnc(N2CCC(NC(=S)Nc3cccnc3)CC2)c1Cl` [Example 67, 1-(1-(3-Chloro-4-(2-(trifluoromethoxy)phenoxy)pyridin-2-yl)piperidin-4-yl)-3-(pyridin-3-yl)thiourea], the pIC50 in experiment [1] is 6.00 to 7.00; in experiment [2], at least 7.00.
Consider `N#Cc1c(Oc2ccc(OC(F)(F)F)cc2)ccnc1N1CCC(NC(=S)Nc2cccnc2)CC1` [Example 71, 1-(1-(3-Cyano-4-(4-(trifluoromethoxy)phenoxy)pyridin-2-yl)piperidin-4-yl)-3-(pyridin-3-yl)thiourea], for which the negative-log IC50 (pIC50) in experiment [1] and in experiment [2] was 6.00 to 7.00 each time.
For `Cc1c(Oc2ccc(OC(F)(F)F)cc2)ccnc1N1CCC(NC(=S)Nc2cccnc2)CC1` [Example 72, 1-(1-(3-Methyl-4-(4-(trifluoromethoxy)phenoxy)pyridin-2-yl)piperidin-4-yl)-3-(pyridin-3-yl)thiourea], the pIC50 in experiment [1] and in experiment [2] was at least 7.00 each time.
For the molecule `COc1ccc(Oc2ccnc(N3CCC(NC(=S)Nc4cccnc4)CC3)c2)cc1` [Example 74, 1-(1-(4-(4-Methoxyphenoxy)pyridin-2-yl)piperidin-4-yl)-3-(pyridin-3-yl)thiourea], the negative logarithm of the IC50 (pIC50) in experiment [1] and in experiment [2] was 4.60 to 6.00 throughout.
